Test results published in PubChem BioAssay AID1963965 (Molecular Pharmacology Branch, DTP, NCI, 2024).

System: 996289-038-R-J1-PDC spheroid viability
Assay: Anticancer human tumor 996289-038-R-J1-PDC patient-derived colon adenocarcinoma cell line growth inhibition [PI3K]
Conditions: spheroids with HUVEC and MSC; for IC50: curve of first compound; for viability, T/C: stronger effect = lower value; active means viability on the fitted dose curve at most 10% of control; inactive means the rest
How it was run: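 Stroma-containing spheroids: tumor line, pooled-donor HUVEC, hMSC. Treatments: targeted agents with PI3K inhibitors. Dosing: clinically relevant, half-log spacing, 10 microM ceiling without known Cmax. Read-out: cell viability.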
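Further: spheroids exposed to compounds for seven days before viability read.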
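Wherever viability, T/C is given: luminescence used as a proxy for viable cell amount; percent viability relative to DMSO vehicle control as 100%.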

CC1(C)CCC(Nc2ncc(C(F)(F)F)c(-c3c[nH]c4c(P(C)(C)=O)c(C#N)ccc34)n2)CN1 (configuration not stated) + Cc1nc(NC(=O)N2CCCC2C(N)=O)sc1-c1ccnc(C(C)(C)C(F)(F)F)c1
4.92 µM: IC50 (second compound 1 µM)
5.83 µM: IC50 (second compound 0.316 µM)
6.45 µM: IC50 (second compound 0.0316 µM)
< 0.0316 µM: IC50 (second compound 10 µM)
6.7 µM: IC50 (second compound 0.1 µM)
3.62 µM: IC50 (second compound 3.16 µM)
inactive: viability, T/C (second compound 0.0316 µM, first compound 0.0316 µM) 103% | viability, T/C (second compound 0.0316 µM, first compound 0.1 µM) 86.8% | viability, T/C (second compound 0.0316 µM, first compound 0.316 µM) 75.6% | viability, T/C (second compound 0.0316 µM, first compound 1 µM) 90.1% | viability, T/C (second compound 0.0316 µM, first compound 3.16 µM) 92.2% | viability, T/C (second compound 0.0316 µM, first compound 10 µM) 25.6% | viability, T/C (second compound 0.1 µM, first compound 0.0316 µM) 89.9% | viability, T/C (second compound 0.1 µM, first compound 0.1 µM) 74.1% | viability, T/C (second compound 0.1 µM, first compound 0.316 µM) 88.2% | viability, T/C (second compound 0.1 µM, first compound 1 µM) 85% | viability, T/C (second compound 0.1 µM, first compound 3.16 µM) 91.3% | viability, T/C (second compound 0.1 µM, first compound 10 µM) 30.8% | viability, T/C (second compound 0.316 µM, first compound 0.0316 µM) 75.5% | viability, T/C (second compound 0.316 µM, first compound 0.1 µM) 78% | viability, T/C (second compound 0.316 µM, first compound 0.316 µM) 85.8% | viability, T/C (second compound 0.316 µM, first compound 1 µM) 79% | viability, T/C (second compound 0.316 µM, first compound 3.16 µM) 80.2% | viability, T/C (second compound 0.316 µM, first compound 10 µM) 24% | viability, T/C (second compound 1 µM, first compound 0.0316 µM) 75% | viability, T/C (second compound 1 µM, first compound 0.1 µM) 70% | viability, T/C (second compound 1 µM, first compound 0.316 µM) 70.8% | viability, T/C (second compound 1 µM, first compound 1 µM) 69.7% | viability, T/C (second compound 1 µM, first compound 3.16 µM) 68.1% | viability, T/C (second compound 1 µM, first compound 10 µM) 21.4% | viability, T/C (second compound 3.16 µM, first compound 0.0316 µM) 62.5% | viability, T/C (second compound 3.16 µM, first compound 0.1 µM) 57.9% | viability, T/C (second compound 3.16 µM, first compound 0.316 µM) 55.9% | viability, T/C (second compound 3.16 µM, first compound 1 µM) 58.7% | viability, T/C (second compound 3.16 µM, first compound 3.16 µM) 55% | viability, T/C (second compound 3.16 µM, first compound 10 µM) 13.1% | viability, T/C (second compound 10 µM, first compound 0.0316 µM) 41.9% | viability, T/C (second compound 10 µM, first compound 0.1 µM) 46% | viability, T/C (second compound 10 µM, first compound 0.316 µM) 41.7% | viability, T/C (second compound 10 µM, first compound 1 µM) 38.8% | viability, T/C (second compound 10 µM, first compound 3.16 µM) 36.9% | viability, T/C (second compound 10 µM, first compound 10 µM) 10.2%
